Test results reported in patent US9809623B2, “α4β7 peptide monomer and dimer antagonists” (Protagonist Therapeutics, Inc., priority 2014, dated 2017).
Numbered stars: 1 amine (or outer) side, 2 acyl side, 3 side chain; on linkers, the order of the positions; unused ones are H or OH. Bridge positions count the residues as written; N and C are the ends. Square brackets hold non-standard residues; d marks the D form. Peptide text beside a SMILES is read from it. I, II: the chains in the order shown. ξ: configuration not given here. Phe(4-tBu) = CC(C)(C)c1ccc(C[C@H](N)C(=O)O)cc1; Diglycolyl = O=C(COCC(=O)[*:2])[*:1]; NMeR = CN[C@@H](CCCNC(=N)N)C(=O)O; β3hE = N[C@@H](CCC(=O)O)CC(=O)O; Thr(3ξ) = CC(O)[C@H](N)C(=O)O; Pen = CC(C)(S)[C@H](N)C(=O)O

Tested on: BALB/c mice, chronic DSS colitis
Experiment: 15 day chronic DSS colitis mouse model
Type: in vivo
Settings: all doses: 55, 17 or 6 mg/kg/day in drinking water
Protocol: To further evaluate the efficacy of peptides of the present invention in treating colitis, a chronic DSS colitis mouse model was used to examine the effects of orally administered Peptide X or another peptide, Peptide XX, as compared to vehicle control or the antibodies, MECA 367 and DATK32. Peptide XX is a dimer having the following structure, where DIG links the two peptide monomers by their C-termini:
In this 15 day chronic DSS colitis study, BALB/c mice were treated continuously with 2.5% DSS. Peptide X dosing was 55 mg/kg/day, 17 mg/kg/day or 6 mg/kg/day in drinking water. Peptide XX dosing was 10 mg/kg PO BID plus 0.2 mg/ml in drinking water. The anti-α4β7 Ab DATK32 was dosed 25 mg/kg IP every 3 days, and the anti-MAdCAM Ab MECA 367 was dosed 8 mg/kg IP daily. After takedown, distal colon sections were fixed for histopathology and processed for β7+ cell IH staining using the anti-β7 antibody M293.

**Q.** `CC(=O)N[C@@H]1C(=O)N(C)[C@@H](CCCNC(=N)N)C(=O)N[C@@H](CO)C(=O)N[C@@H](CC(=O)O)C(=O)N[C@@H](C(C)O)C(=O)N[C@@H](CC(C)C)C(=O)N[C@H](C(=O)N[C@@H](Cc2ccc(C(C)(C)C)cc2)C(=O)N[C@@H](CCC(=O)O)CC(=O)N[C@H](CCCCNC(=O)COCC(=O)NCCCC[C@@H](NC(=O)C[C@H](CCC(=O)O)NC(=O)[C@H](Cc2ccc(C(C)(C)C)cc2)NC(=O)[C@H]2NC(=O)[C@H](CC(C)C)NC(=O)[C@H](C(C)O)NC(=O)[C@H](CC(=O)O)NC(=O)[C@H](CO)NC(=O)[C@H](CCCNC(=N)N)N(C)C(=O)[C@@H](NC(C)=O)C(C)(C)SSC2(C)C)C(N)=O)C(N)=O)C(C)(C)SSC1(C)C` (stereo partly drawn) [Peptide X, [Ac-Pen-(N-Me-Arg)-Ser-Asp-Thr-Leu-Pen-(Phe(4-tBu))-(β-homoGlu)-(D-Lys)]2-DIG] (I: Ac-[Pen][NMeR]SD[Thr(3ξ)]L[Pen][Phe(4-tBu)][β3hE][dK]-NH2 / II: Ac-[Pen][NMeR]SD[Thr(3ξ)]L[Pen][Phe(4-tBu)][β3hE][dK]-NH2; disulfide I:1-I:7, II:1-II:7; linker I:10-II:10 via Diglycolyl) was tested. Which “infiltration of B7+ cells into the lamina propria of the distal colon” value did it give?
**A.** Its value is “reduced infiltration”.
